From PubChem BioAssay AID1963986 (Molecular Pharmacology Branch, DTP, NCI, 2024)

System: 171881-019-R-J1-PDC tumor spheroid viability
Assay: Anticancer human tumor 171881-019-R-J1-PDC patient-derived invasive breast carcinoma cell line growth inhibition [PI3K]
Conditions: spheroids with HUVEC and MSC; for IC50: curve of first compound; for viability, T/C: stronger effect = lower value; active means viability on the fitted dose curve at most 10% of control; inactive means the rest
Outline: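 Viability of mixed-cell spheroids was determined after exposure to pairwise combinations, one partner being inavolisib, alpelisib, duvelisib or copanlisib. Highest tested concentration matched clinical Cmax where known and 10 microM where not, descending in half-log steps.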

[1] = second compound 0.00316 µM, first compound 0.0316 µM
[2] = second compound 0.00316 µM, first compound 0.1 µM
[3] = second compound 0.00316 µM, first compound 0.316 µM
[4] = second compound 0.00316 µM, first compound 1 µM
[5] = second compound 0.00316 µM, first compound 3.16 µM
[6] = second compound 0.00316 µM, first compound 10 µM
[7] = second compound 0.01 µM, first compound 0.0316 µM
[8] = second compound 0.01 µM, first compound 0.1 µM
[9] = second compound 0.01 µM, first compound 0.316 µM
[10] = second compound 0.01 µM, first compound 1 µM
[11] = second compound 0.01 µM, first compound 3.16 µM
[12] = second compound 0.01 µM, first compound 10 µM
[13] = second compound 0.0316 µM, first compound 0.0316 µM
[14] = second compound 0.0316 µM, first compound 0.1 µM
[15] = second compound 0.0316 µM, first compound 0.316 µM
[16] = second compound 0.0316 µM, first compound 1 µM
[17] = second compound 0.0316 µM, first compound 3.16 µM
[18] = second compound 0.0316 µM, first compound 10 µM
[19] = second compound 0.1 µM, first compound 0.0316 µM
[20] = second compound 0.1 µM, first compound 0.1 µM
[21] = second compound 0.1 µM, first compound 0.316 µM
[22] = second compound 0.1 µM, first compound 1 µM
[23] = second compound 0.1 µM, first compound 3.16 µM
[24] = second compound 0.1 µM, first compound 10 µM
[25] = second compound 0.316 µM, first compound 0.0316 µM
[26] = second compound 0.316 µM, first compound 0.1 µM
[27] = second compound 0.316 µM, first compound 0.316 µM
[28] = second compound 0.316 µM, first compound 1 µM
[29] = second compound 0.316 µM, first compound 3.16 µM
[30] = second compound 0.316 µM, first compound 10 µM
[31] = second compound 1 µM, first compound 0.0316 µM
[32] = second compound 1 µM, first compound 0.1 µM
[33] = second compound 1 µM, first compound 0.316 µM
[34] = second compound 1 µM, first compound 1 µM
[35] = second compound 1 µM, first compound 3.16 µM
[36] = second compound 1 µM, first compound 10 µM
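Further: spheroids exposed to compound for 7 days before viability read.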
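Wherever viability, T/C is given: 100% = DMSO vehicle-treated spheroids.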

C#Cc1c(F)ccc2cc(O)cc(-c3ncc4c(N5CC6CCC(C5)N6)nc(OCC56CCCN5CC(F)C6)nc4c3F)c12 (stereo unspecified) + CC(Nc1ccc2c(c1)OCCn1cc(N3C(=O)OCC3C(F)F)nc1-2)C(N)=O
active: viability, T/C [23] 9.09% | viability, T/C [24] 8.33% | viability, T/C [28] 7.74% | viability, T/C [29] 6.88% | viability, T/C [30] 6.22% | viability, T/C [33] 7.9% | viability, T/C [34] 7.17% | viability, T/C [35] 5.55% | viability, T/C [36] 4.36%
187 nM: IC50 (second compound 0.00316 µM)
inactive: viability, T/C [1] 72.4% | viability, T/C [2] 57.1% | viability, T/C [3] 44.4% | viability, T/C [4] 32.8% | viability, T/C [5] 28.8% | viability, T/C [6] 22% | viability, T/C [7] 65% | viability, T/C [8] 51.7% | viability, T/C [9] 32% | viability, T/C [10] 27.5% | viability, T/C [11] 22.2% | viability, T/C [12] 17.1% | viability, T/C [13] 42.7% | viability, T/C [14] 37.2% | viability, T/C [15] 26.4% | viability, T/C [16] 18.3% | viability, T/C [17] 14.9% | viability, T/C [18] 12.7% | viability, T/C [19] 31.1% | viability, T/C [20] 23.6% | viability, T/C [21] 15.6% | viability, T/C [22] 11.9% | viability, T/C [25] 21.1% | viability, T/C [26] 15.7% | viability, T/C [27] 10.4% | viability, T/C [31] 17.2% | viability, T/C [32] 12.3%
99.6 nM: IC50 (second compound 0.01 µM)
< 31.6 nM: IC50 (second compound 0.0316 µM) | IC50 (second compound 0.1 µM) | IC50 (second compound 0.316 µM) | IC50 (second compound 1 µM)

CC1(C)CCC(Nc2ncc(C(F)(F)F)c(-c3c[nH]c4c(P(C)(C)=O)c(C#N)ccc34)n2)CN1 (stereo unspecified) + CC(Nc1ccc2c(c1)OCCn1cc(N3C(=O)OCC3C(F)F)nc1-2)C(N)=O
active: viability, T/C [18] 5.82% | viability, T/C [24] 2.6% | viability, T/C [30] 1.37% | viability, T/C [36] 1.29%
1660 nM: IC50 (second compound 0.0316 µM)
< 31.6 nM: IC50 (second compound 0.1 µM) | IC50 (second compound 0.316 µM) | IC50 (second compound 1 µM)
inactive: viability, T/C [1] 68% | viability, T/C [2] 70.8% | viability, T/C [3] 74.5% | viability, T/C [4] 72.6% | viability, T/C [5] 81.4% | viability, T/C [6] 15.6% | viability, T/C [7] 60.8% | viability, T/C [8] 65.4% | viability, T/C [9] 65.8% | viability, T/C [10] 73.6% | viability, T/C [11] 66.9% | viability, T/C [12] 12% | viability, T/C [13] 44.7% | viability, T/C [14] 49.7% | viability, T/C [15] 54.6% | viability, T/C [16] 57.4% | viability, T/C [17] 47.4% | viability, T/C [19] 34.1% | viability, T/C [20] 37% | viability, T/C [21] 39.9% | viability, T/C [22] 40.4% | viability, T/C [23] 33.3% | viability, T/C [25] 27.7% | viability, T/C [26] 26.8% | viability, T/C [27] 30.2% | viability, T/C [28] 29.4% | viability, T/C [29] 24.4% | viability, T/C [31] 21.3% | viability, T/C [32] 22.5% | viability, T/C [33] 23.6% | viability, T/C [34] 22.9% | viability, T/C [35] 16.8%
4480 nM: IC50 (second compound 0.01 µM)
5040 nM: IC50 (second compound 0.00316 µM)

Cn1cnc2c(F)c(Nc3ccc(Br)cc3Cl)c(C(=O)NOCCO)cc21 + CC(Nc1ncnc2nc[nH]c12)c1cc2cccc(Cl)c2c(=O)n1-c1ccccc1
inactive: viability, T/C (second compound 0.0316 µM, first compound 0.00949 µM) 93.5% | viability, T/C (second compound 0.0316 µM, first compound 0.03 µM) 84% | viability, T/C (second compound 0.0316 µM, first compound 0.0949 µM) 89.2% | viability, T/C (second compound 0.0316 µM, first compound 0.3 µM) 63.5% | viability, T/C (second compound 0.0316 µM, first compound 0.949 µM) 42.2% | viability, T/C (second compound 0.0316 µM, first compound 3 µM) 19.5% | viability, T/C (second compound 0.1 µM, first compound 0.00949 µM) 87.3% | viability, T/C (second compound 0.1 µM, first compound 0.03 µM) 84.7% | viability, T/C (second compound 0.1 µM, first compound 0.0949 µM) 75% | viability, T/C (second compound 0.1 µM, first compound 0.3 µM) 70.8% | viability, T/C (second compound 0.1 µM, first compound 0.949 µM) 40.7% | viability, T/C (second compound 0.1 µM, first compound 3 µM) 18.3% | viability, T/C (second compound 0.316 µM, first compound 0.00949 µM) 96.6% | viability, T/C (second compound 0.316 µM, first compound 0.03 µM) 91% | viability, T/C (second compound 0.316 µM, first compound 0.0949 µM) 77.2% | viability, T/C (second compound 0.316 µM, first compound 0.3 µM) 63.2% | viability, T/C (second compound 0.316 µM, first compound 0.949 µM) 38.6% | viability, T/C (second compound 0.316 µM, first compound 3 µM) 17.5% | viability, T/C (second compound 1 µM, first compound 0.00949 µM) 88.9% | viability, T/C (second compound 1 µM, first compound 0.03 µM) 74.4% | viability, T/C (second compound 1 µM, first compound 0.0949 µM) 71.8% | viability, T/C (second compound 1 µM, first compound 0.3 µM) 57.9% | viability, T/C (second compound 1 µM, first compound 0.949 µM) 34.6% | viability, T/C (second compound 1 µM, first compound 3 µM) 15.4% | viability, T/C (second compound 3.16 µM, first compound 0.00949 µM) 74.4% | viability, T/C (second compound 3.16 µM, first compound 0.03 µM) 65.3% | viability, T/C (second compound 3.16 µM, first compound 0.0949 µM) 55.9% | viability, T/C (second compound 3.16 µM, first compound 0.3 µM) 40.5% | viability, T/C (second compound 3.16 µM, first compound 0.949 µM) 25.8% | viability, T/C (second compound 10 µM, first compound 0.00949 µM) 46.2% | viability, T/C (second compound 10 µM, first compound 0.03 µM) 44.2% | viability, T/C (second compound 10 µM, first compound 0.0949 µM) 37.8% | viability, T/C (second compound 10 µM, first compound 0.3 µM) 31.2% | viability, T/C (second compound 10 µM, first compound 0.949 µM) 14.9%
664 nM: IC50 (second compound 0.1 µM)
628 nM: IC50 (second compound 0.0316 µM)
active: viability, T/C (second compound 3.16 µM, first compound 3 µM) 9.87% | viability, T/C (second compound 10 µM, first compound 3 µM) 4.91%
547 nM: IC50 (second compound 0.316 µM)
143 nM: IC50 (second compound 3.16 µM)
< 9.49 nM: IC50 (second compound 10 µM)
423 nM: IC50 (second compound 1 µM)
